Laboratory results from patent US10450573B2, “Compositions and methods for regulation of gene expression with, and detection of, folinic acid and folates” (The Board of Trustees of the Leland Stanford Junior …, priority 2014, dated 2019).

B1: tFA8-18: truncated (6S)-FA specific RNA aptamer, SEQ ID NO: 23 (nucleic acid)
chain: CUCGUCAAUGCAUAUGUAACGUUAACGGCGCUACCUGUACAAUGCACGUUCCGAGCGCCCGGAGACGAG
modifications: unmodified RNA
B2: L2b8: parent theophylline-responsive ribozyme switch, SEQ ID NO: 43 (nucleic acid)
chain: AAACAAACAAAGCTGTCACCGGATGTGCTTTCCGGTCTGATGAGTCCGTTGTCCATACCAGCATCGTCTTGATGCCCTTGGCAGGGACGGGACGGAGGACGAAACAGCAAAAAGAAAAATAAAAA
modifications: listed as DNA, chemistry not fully specified

Legend:
[1] = cited from earlier work; for concentration that can accumulate in human blood plasma: intravenous infusion
[2] = Surface plasmon resonance aptamer binding assay, (6R)-folinic acid; details: for ka, (6R)-Folinic Acid / kd, (6R)-Folinic Acid / Kd: SPR, 25° C., selection buffer pH 7.4, 5 mM MgCl2; for ka, (6R)-Folinic Acid / kd, (6R)-Folinic Acid: 1:1 binding model; for Selectivity: between (6R)- and (6S)-folinic acid diastereomers
Protocol: (§1) Surface plasmon resonance characterization of aptamer binding properties. Nucleic acid aptamer preparation. RNA aptamers were prepared by PCR amplification of DNA template sequences (Table 4, Integrated DNA Technologies, Coralville, Iowa) using forward and reverse primers Biacore-fwd and Biacore-rev, respectively, followed by transcription of the PCR product using the MEGAshortscript T7 transcription kit (Life Technologies) and purification of the transcription product using the RNA Clean & Concentrator kit (Zymo Research, Irvine, Calif.), according to the manufacturers' instructions. Aptamers were resuspended in selection buffer, denatured at 65° C. for 5 min, and cooled to room temperature directly before use.
(§2) Sensor chip surface generation. Experiments were performed on a Biacore X100 instrument (GE Healthcare) at 25° C. A CM5 sensor chip (GE Healthcare) was equilibrated with HBS-N buffer. The DNA linker strand (5′-AmMC6-[…]) (Integrated DNA Technologies) (SEQ ID NO:133), with an amino modified 6-carbon linker on the 5′ end, was immobilized to the chip surface. The carboxymethylated dextran surface of the CM5 chip was activated for 7 min at a flow rate of 10 μL/min using a 1:1 volume ratio of 0.4 M 1-ethyl-3-(3-dimethylaminopropyl) carbodiimide (GE Healthcare) and 0.1 M N-hydroxysuccinimide (GE Healthcare). A molar ratio of 1:30 of DNA strand to hexadecyltrimethylammonium bromide (Sigma-Aldrich, St. Louis, Mo.) was diluted in 10 mM HEPES buffer (Sigma-Aldrich) to a final concentration of 20 μM and 0.6 mM, respectively, and injected over the activated surface for 10 min at a flow rate of 5 μL/min. Excess activated groups were blocked by an injection of 1 M ethanolamine (GE Healthcare), pH 8.5, for 7 min at a flow rate of 10 μL/min. The immobilization reaction was performed sequentially on both flow cells (FC1, FC2) and yielded approximately 4,000 RU of the DNA strand.
(§3) Aptamer binding assay. The Biacore X100 instrument was primed three times with running buffer prior to all binding assays. For each assay, three startup cycles were performed to stabilize the sensorgram baseline. For each startup cycle, the aptamer (˜40-70 ng/μL, ˜3 μM) was captured onto the sample flow cell (FC2) for 40 s at a flow rate of 5 μL/min. 25 mM NaOH (GE Healthcare) was injected for 30 s at a flow rate of 30 μL/min over both flow cells to regenerate the sensor surface. A dilution series of (6R)- or (6S)-folinic acid (Schircks Laboratories, Jona, Switzerland) was prepared in selection buffer and filtered through a 0.2 μm membrane (Pall Corporation, Port Washington, N.Y.). For each concentration sample, the aptamer was captured onto the sample flow cell (FC2) for 40 s at a flow rate of 5 μL/min, the folinic acid solution was injected over both flow cells at a flow rate of 30 μL/min to monitor target association, and selection buffer was injected over both flow cells at a flow rate of 30 μL/min to monitor target dissociation. Association and dissociation phase lengths used were chosen based on time needed to reach equilibrium. Aptamer and folinic acid were removed from the sensor surface by injecting 25 mM NaOH for 30 s at a flow rate of 30 μL/min over both flow cells.
(§4) Data processing and analysis were performed using Biacore X100 Evaluation Software version 2.0 (GE Healthcare). A double-referencing method was performed to process all datasets. Data from the sample flow cell (FC2) were referenced first by subtracting data from the reference flow cell (FC1) to correct for bulk refractive index changes, nonspecific binding, injection noise, matrix effects, and baseline drift. Reference-subtracted data (FC2−FC1) were double-referenced with a blank injection of running buffer to account for any systematic drift over the course of the injection. Double-referenced data were fit to a 1:1 binding model for kinetic analysis or steady-state affinity model for thermodynamic analysis. […]

[3] = Surface plasmon resonance aptamer binding assay, (6S)-folinic acid; details: SPR, 25° C., selection buffer pH 7.4, 5 mM MgCl2; for ka, (6S)-Folinic Acid / kd, (6S)-Folinic Acid: 1:1 binding model
Protocol: as §1, §2, §3, §4

[4] = SPR binding to (6R,S)-5-methyl-5,6,7,8-tetrahydrofolic acid; details: ligand is mixture of (6R) and (6S) diastereomers; for Kd: read-out: KD, (6R,S)-5-methyl-THF
[5] = SPR binding to (6R,S)-5-formyl-5,6,7,8-tetrahydropteroic acid; details: ligand is mixture of (6R) and (6S) diastereomers; for Kd: read-out: KD, (6R,S)-5-formyl-THPteroic Acid
GFP expression = assay: Gene-regulatory activity of ribozyme-based switches in yeast (GFP, flow cytometry); assay type: cell-based, Saccharomyces cerevisiae; details: normalized to sTRSV Contl
Protocol: Plasmid and strain construction. Standard molecular biology cloning techniques were used to construct all plasmids. DNA synthesis was performed by Integrated DNA Technologies (Coralville, Iowa) or the Protein and Nucleic Acid Facility (Stanford, Calif.). All enzymes, including restriction enzymes and ligases, were obtained through New England Biolabs (Ipswich, Mass.). Ligation products were electroporated with a GenePulser XCell (Bio-Rad, Hercules, Calif.) into an E. coli DH10B strain (Invitrogen, Carlsbad, Calif.), where cells harboring cloned plasmids were maintained in Luria-Bertani media containing 50 μg/mL ampicillin (EMD Chemicals, Philadelphia, Pa.). […]
The two-color screening plasmid pCS1748; single-color plasmids harboring GFP (pCS1585) and mCherry (pCS1749) for use as compensation controls; and no-color plasmid pCS4, containing no fluorescence reporter gene, was used as the negative-control construct. […]
Cell sorting screen for functional ligand-responsive RNA switches. […] Transformation efficiencies were determined by plating serial dilutions of the transformants, and transformed cells were propagated in SC-URA media for FACS.
Two-color FACS-based screen. […] GFP was excited at 488 nm and measured with a splitter of 505 nm and bandpass filter of 525/50 nm. mCherry was excited at 532 nm and measured with a splitter of 600 nm and a bandpass filter of 610/20 nm. […]

Row | Molecule | plasma concentration compared to the (6S) diastereomer ([1]; in vivo) [fold] | plasma half-life compared to the (6S) diastereomer ([1]; in vivo) | concentration that can accumulate in human blood plasma [1] | ka, (6R)-Folinic Acid [2] [M⁻¹ s⁻¹] | kd, (6R)-Folinic Acid [2] [s⁻¹] | Kd [2] [nM] | Selectivity [2] | ka, (6S)-Folinic Acid [3] [M⁻¹ s⁻¹] | kd, (6S)-Folinic Acid [3] [s⁻¹] | Kd [3] [µM] | ka, (6R,S)-5-methyl-THF [4] [M⁻¹ s⁻¹] | kd, (6R,S)-5-methyl-THF [4] [s⁻¹] | Kd [4] [µM] | ka, (6R,S)-5-formyl-THPteroic Acid [5] [M⁻¹ s⁻¹] | kd, (6R,S)-5-formyl-THPteroic Acid [5] [s⁻¹] | Kd [5] [nM] | normalized GFP expression (GFP expression; absence of theophylline) [%] | normalized GFP expression (GFP expression; presence of 5 mM theophylline) [%]
1 | Nc1nc2c(c(=O)[nH]1)N(C=O)[C@H](CNc1ccc(C(=O)N[C@@H](CCC(=O)O)C(=O)O)cc1)CN2 [(6R)-folinic acid] | ≤ 18 | up to 15 fold | up to 77.6 μM |  |  |  |  |  |  |  |  |  |  |  |  |  |  | 
2 | tFA8-16: truncated (6R)-FA specific RNA aptamer, SEQ ID NO: 22 (CUCCUUCCGGUGACCUGGACGUUAUUUCCGGCCGAAGGGAG; unmodified RNA) |  |  |  | 33000 | 0.0602 | 1820 | 684 | 682 | 0.85 | 1250 |  |  |  |  |  |  |  | 
3 | tFA8-4: truncated (6R)-FA specific RNA aptamer, SEQ ID NO: 18 (GCUUGGCGUUGCGUGGUACGUUAUAUUCCGGCCAAGC; unmodified RNA) |  |  |  | 269000 | 0.00515 | 19.2 | 260 | 21100 | 0.105 | 4.98 | 33500 | 0.211 | 6.29 | 135000 | 0.00494 | 36.6 |  | 
4 | tFA10-7: truncated (6S)-FA specific RNA aptamer, SEQ ID NO: 24 (ACGGCGAAGAGUCAAAGCAUCCCCUGCGAAAGCAGGGCCCGU; unmodified RNA) |  |  |  |  |  | 74400 | 515 | 53600 | 0.00775 | 0.144 |  |  | 81.8 | 35200 | 0.00697 | 198 |  | 
5 | Nc1nc(=O)c2c([nH]1)NC[C@H](CNc1ccc(C(=O)N[C@@H](CCC(=O)O)C(=O)O)cc1)N2C=O [(6S)-folinic acid] |  |  | ≤ 7.95 µM |  |  |  |  |  |  |  |  |  |  |  |  |  |  | 
6 | tFA8-11: truncated (6R)-FA specific RNA aptamer, SEQ ID NO: 20 (UGCAGUGCUUGGUACGUUAUAUUCAGCUGCA; unmodified RNA) |  |  |  | 116000 | 0.00468 | 40.5 | 855 | 6560 | 0.227 | 34.6 | 14300 | 0.195 | 13.6 | 750000 | 0.00568 | 75.7 |  | 
7 | tFA6-8: truncated (6R)-FA specific RNA aptamer, SEQ ID NO: 21 (UUCCCGUCAGGUACGUUAUAUUCGGGGGA; unmodified RNA) |  |  |  | 77900 | 0.0176 | 225 | 567 | 2330 | 0.297 | 128 |  |  |  |  |  |  |  | 
8 | B1 |  |  |  | 94 | 0.00355 | 37700 | 600 | 36100 | 0.00227 | 0.0628 |  |  | 447 | 53200 | 0.00633 | 119 |  | 
9 | B2 |  |  |  |  |  |  |  |  |  |  |  |  |  |  |  |  | ~10.8 | ~36.7
